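Assay format: 96-well plates, 48-hour exposure. At the GI50, growth is halved.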 Activity calls are given as the source filed them. No stated cut-off is given here; in the data, active = GI50 up to about 1.1 µM and inactive = higher.

Holding throughout (assay): growth of human tumour cells (NCI), 48 h
Assay [1] concerns 786-0.
Assay [2] has as its system A549.
In assay [3] the test system is COLO 205.
The test system of assay [4] is HT-29.
The subject of assay [5] is Hs-578T.
Assay [6] deals with IGROV-1.
The subject of assay [7] is M14.
For assay [8], the system named is MDA-N.
In assay [9] the test system is NCI-H23.
The subject of assay [10] is PC-3.
In assay [11] the test system is RPMI-8226.
The test system of assay [12] is RXF 393.
Assay [13] has as its system SF-539.
Assay [14] deals with SW-620.
In assay [15] the test system is T47D.
The test system of assay [16] is UACC-257.
Assay [17] has as its system UO-31.
The test system of assay [18] is HOP-62.
Assay [19] has as its system OVCAR-3.
The test system of assay [20] is UACC-62.

Take `O=C(O)c1ccc(NC(NC(=O)C(C(F)(F)F)C(F)(F)F)(C(F)(F)F)C(F)(F)F)cc1`: the GI50 in assay [1], in [2], in assay [3], in [4], in [5] and in assay [6] was > 100 µM (inactive) throughout. Besides, the GI50 in assay [7], in assay [8], in [9], in [10], in assay [11] and in [12] was > 100 µM (inactive) each time. The GI50 in [13], in assay [14], in assay [15], in [16] and in [17] was > 100 µM (inactive) in each case.

Consider `CC1(C)OC2[C@@H](CO[C@@]3([C@H]4OC(C)(C)O[C@@H]4CO)OC(C)(C)O[C@@H]23)O1` (some centres undefined), for which the GI50 in [1], in [2], in assay [3], in [18], in assay [4] and in assay [5] was > 100 µM (inactive) in each case. Further, the GI50 in [6], in assay [7], in assay [8], in assay [9], in assay [19] and in assay [10] was > 100 µM (inactive) each time. The GI50 in assay [11], in assay [12], in assay [14], in [15], in assay [20] and in assay [17] was > 100 µM (inactive) each time.

Regarding `CC(C#N)(NO)C(C)(C#N)NO` (centres undefined), the GI50 is > 100 µM (inactive) in [1]; > 100 µM (inactive) in assay [2]; 81.1 µM (inactive) in [3]; > 100 µM (inactive) in [4]; > 100 µM (inactive) in assay [5]; > 100 µM (inactive) in assay [6]. Also, the GI50 in assay [7], in assay [8], in assay [9], in assay [19], in [10] and in assay [11] was > 100 µM (inactive) throughout. In addition, the GI50 in [12], in [13], in assay [14], in [15], in assay [16] and in [20] was > 100 µM (inactive) each time. Also, the GI50 in assay [17] was > 100 µM (inactive).

In the case of `CC(C)(CO)CNc1cc(=O)[nH]c(N)n1`, the GI50 in assay [1], in [2], in assay [3], in [18], in [4] and in assay [5] was > 100 µM (inactive) throughout. The GI50 in [6], in assay [7], in [8], in assay [9], in [19] and in assay [10] was > 100 µM (inactive) each time. Further, the GI50 in assay [11], in [12], in assay [14], in assay [15], in assay [16] and in assay [20] was > 100 µM (inactive) throughout. Also, the GI50 in [17] was > 100 µM (inactive).

As for `CC(=O)Nc1ncc2c(n1)-c1ccccc1OC2c1ccccc1` (centres undefined), the GI50 in assay [1] was 12.4 µM (inactive); in [2] it was > 100 µM (inactive); in [3] it was > 100 µM (inactive); in [4] it was > 100 µM (inactive); in [5], 6.89 µM (inactive); in assay [6] it was 46.5 µM (inactive). Also, the GI50 in [7] was > 100 µM (inactive); in assay [8], > 100 µM (inactive); in assay [9], 26.1 µM (inactive); in assay [19] it was > 100 µM (inactive); in assay [10], > 100 µM (inactive); in assay [11] it was > 100 µM (inactive). For the same molecule, the GI50 in assay [12] is 17.1 µM (inactive); in assay [13], 13.2 µM (inactive); in [14], > 100 µM (inactive); in [15], 24.7 µM (inactive); in assay [16], > 100 µM (inactive); in assay [20], 14.1 µM (inactive). In assay [17], the GI50 is > 100 µM (inactive).

On to `CC(C)=CCC[C@@H](C)C1=CC(=O)C(C)=C(O)C1=O` [ISOPEREZONE], for which the GI50 in [1] was 5.78 µM (inactive); in assay [2] it was 12.3 µM (inactive); in [3], 10.2 µM (inactive); in assay [18], 12.9 µM (inactive); in assay [4], 7.16 µM (inactive); in assay [5], 6.43 µM (inactive). In addition, the GI50 was 9.2 µM (inactive) in assay [6]; 5.25 µM (inactive) in assay [7]; 4.81 µM (inactive) in assay [8]; 6.75 µM (inactive) in assay [9]; 4.19 µM (inactive) in assay [19]; 5.01 µM (inactive) in assay [10]. Also, the GI50 in [11] was 0.445 µM (active); in assay [12], 2.67 µM (inactive); in assay [14], 4.02 µM (inactive); in [15] it was 2.13 µM (inactive); in [16] it was 10.9 µM (inactive); in assay [20] it was 9.33 µM (inactive). For the same molecule, in assay [17], the GI50 is 3.69 µM (inactive).

As to `OC(Cc1cccnc1)(c1ccccc1)c1ccccc1`, the GI50 in assay [1], in assay [2], in assay [3], in [18], in assay [4] and in assay [5] was > 100 µM (inactive) throughout. For the same molecule, the GI50 in assay [6] was > 100 µM (inactive); in assay [7], 68.1 µM (inactive); in [8] it was 47.2 µM (inactive); in assay [9], 70.8 µM (inactive); in assay [19], > 100 µM (inactive); in assay [10], > 100 µM (inactive). Besides, the GI50 in [11] is 42.9 µM (inactive); in assay [12], > 100 µM (inactive); in assay [14], > 100 µM (inactive); in assay [15], 59 µM (inactive); in assay [16], 41.3 µM (inactive); in [20] it was 91.6 µM (inactive). In addition, in assay [17], the GI50 is > 100 µM (inactive).

Turning to `COC(=O)C(O)P(=O)(OC)OC` (centres undefined), the GI50 in assay [1], in assay [2], in [3], in assay [18], in assay [4] and in assay [5] was > 100 µM (inactive) throughout. Further, the GI50 in assay [6], in [7], in [8], in assay [9], in assay [19] and in [10] was > 100 µM (inactive) throughout. Further, the GI50 in assay [11], in assay [12], in assay [14], in [15], in [16] and in assay [20] was > 100 µM (inactive) each time. Moreover, the GI50 in assay [17] was > 100 µM (inactive).

The values are drawn from ChEMBL document CHEMBL1201862, “PubChem BioAssay data set” (2004).
